Test results published in US6835847B2, “Phthalic acid diamide, method for the production thereof and the use of the same as a pesticide” (Bayer CropScience AG, priority 2001, dated 2004).
Where “and” joins values, the source holds several entries; their conditions need not be identical. Equal entries are not always repeated.

What was measured:
[1] = tested on: caterpillars of the army worm (Spodoptera frugiperda); test: Spodoptera frugiperda test (cabbage leaves dipped); format: in vivo; details: 168 h, 500 ppm active compound, after 7 d, read-out: Kill rate in % after 7 d
Method: Spodoptera frugiperda Test
(§1) To produce a suitable preparation of active compound, 1 part by weight of active compound is mixed with the stated amounts of solvent and emulsifier, and the concentrate is diluted with emulsifier-containing water to the desired concentration.
Cabbage leaves (Brassica oleracea) are treated by being dipped into the preparation of active compound of the desired concentration and are populated with caterpillars of the army worm (Spodoptera frugiperda) while the leaves are still moist.
(§2) After the desired period of time, the kill in % is determined. 100% means that all caterpillars have been killed; 0% means that none of the caterpillars have been killed.

[2] = logP determination by HPLC (reversed-phase C18), EEC directive 79/831 Annex V.A8; format: physicochemical; details: pH 2.3, 0.1% aqueous phosphoric acid/acetonitrile gradient, 43° C.; for chromatographic logP: read-out: log P (pH 2.3)
Method: The stated logP values were determined in accordance with EEC directive 79/831 Annex V.A8 by HPLC (High Performance Liquid Chromatography) using a reversed-phase column (C 18). Temperature: 43° C.
In the acidic range, the determination was carried out at pH 2.3 using the mobile phases 0.1% aqueous phosphoric acid and acetonitrile; linear gradient from 10% acetonitrile to 90% acetonitrile.
Calibration was carried out using unbranched alkan-2-ones (having 3 to 16 carbon atoms) with known logP values (determination of the logP values by the retention times using linear interpolation between two successive alkanones.

[3] = tested on: Heliothis virescens caterpillars; test: Heliothis virescens test (soybean shoots dipped); format: in vivo; details: 500 ppm active compound
Method: as §1
Soybean shoots (Glycine max) are treated by being dipped into the preparation of active compound of the desired concentration and are populated with Heliothis virescens caterpillars while the leaves are still moist.
as §2

[4] = tested on: larvae of the mustard beetle (Phaedon cochleariae); test: Phaedon larvae test (cabbage leaves dipped); format: in vivo; details: 500 ppm active compound
Method: as §1
Cabbage leaves (Brassica oleracea) are treated by being dipped into the preparation of active compound of the desired concentration and are populated with larvae of the mustard beetle (Phaedon cochleariae) while the leaves are still moist.
After the desired period of time, the kill in % is determined. 100% means that all beetle larvae have been killed; 0% means that none of the beetle larvae have been killed.

[5] = tested on: caterpillars of the diamond back moth (Plutella xylostella, sensitive strain); test: Plutella test, sensitive strain (cabbage leaves dipped); format: in vivo; details: 500 ppm active compound
Method: Plutella Test, Sensitive Strain
as §1
Cabbage leaves (Brassica oleracea) are treated by being dipped into the preparation of active compound of the desired concentration and are populated with caterpillars of the diamond back moth (Plutella xylostella, sensitive strain) while the leaves are still moist.
as §2

[6] = tested on: caterpillars of the diamond back moth (Plutella xylostella, resistant strain); test: Plutella test, resistant strain (cabbage leaves dipped); format: in vivo; details: 500 ppm active compound
Method: Plutella Test, Resistant Strain
as §1
Cabbage leaves (Brassica oleracea) are treated by being dipped into the preparation of active compound of the desired concentration and are populated with caterpillars of the diamond back moth (Plutella xylostella, resistant strain) while the leaves are still moist.
as §2

[7] = tested on: caterpillars of the army worm (Spodoptera exigua); test: Spodoptera exigua test (cabbage leaves dipped); format: in vivo; details: 500 ppm active compound
Method: as §1
Cabbage leaves (Brassica oleracea) are treated by being dipped into the preparation of active compound of the desired concentration and are populated with caterpillars of the army worm (Spodoptera exigua) while the leaves are still moist.
as §2

Cc1cc(C(F)(C(F)(F)F)C(F)(F)F)ccc1NC(=O)c1c(Cl)cccc1C(=O)NCC(C)(C)O[Si](C)(C)C
pest or weed control at 500 ppm [1]: 100%

Cc1cc(C(F)(C(F)(F)F)C(F)(F)F)ccc1NC(=O)c1cccc(Cl)c1C(=O)NC[Si](C)(C)C
pest or weed control at 500 ppm [1]: 100%

Cc1cc(C(F)(C(F)(F)F)C(F)(F)F)ccc1NC(=O)c1cccc(Cl)c1C(=O)NCC(C)(C)O[Si](C)(C)C
pest or weed control at 500 ppm [1]: 100%

Cc1cc(Oc2ccc(C(F)(F)F)cc2)ccc1NC(=O)c1c(I)cccc1C(=O)NC(C)CSC[Si](C)(C)C (stereo not shown)
pest or weed control at 500 ppm [1]: 100%

Cc1cc(Oc2ccc(C(F)(F)F)cc2)ccc1NC(=O)c1c(Cl)cccc1C(=O)NC(C)CSC[Si](C)(C)C (stereo not shown)
pest or weed control at 500 ppm [1]: 100%

Cc1cc(-c2nnn(C(C)(C)C)n2)ccc1NC(=O)c1cccc(I)c1C(=O)NC(C)CSC[Si](C)(C)C (stereo not shown)
pest or weed control at 500 ppm [1]: 100%

3-Chloro-N^1-[2-methyl-4-(1,1,2,2-tetrafluoroethoxy)phenyl]-N^2-[(trimethylsilyl)methyl]phthalamide (Isomer 1) and 3-chloro-N^2-[2-methyl-4-(1,1,2,2-tetrafluoroethoxy)phenyl]-N^1-[(trimethylsilyl)methyl]phthalamide (Isomer 2) [Example 2 Isomer Mixture]
log P (pH 2.3) [2]: 3.59 and 3.69

Cc1cc(C(F)(C(F)(F)F)C(F)(F)F)ccc1NC(=O)c1c(Cl)cccc1C(=O)NC(C)CSC[Si](C)(C)C (single isomer, unassigned) [Example 1 Isomer 1, 3-Chloro-N^2-{2-methyl-4-[1,2,2,2-tetrafluoro-1-(trifluoromethyl)ethyl]phenyl}-N^1-(1-methyl-2-{[(trimethylsilyl)methyl]sulphanyl}ethyl)phthalamide]
chromatographic logP [2]: 5.38

Cc1cc(C(F)(C(F)(F)F)C(F)(F)F)ccc1NC(=O)c1cccc(Cl)c1C(=O)NC(C)CSC[Si](C)(C)C (single isomer, unassigned) [Example 1 Isomer 2, 3-Chloro-N^1-{2-methyl-4-[1,2,2,2-tetrafluoro-1-(trifluoromethyl)ethyl]phenyl}-N^2-(1-methyl-2-{[(trimethylsilyl)methyl]sulphanyl}ethyl)phthalamide]
chromatographic logP [2]: 5.56

Cc1cc(C(F)(C(F)(F)F)C(F)(F)F)ccc1NC(=O)c1cccc(Cl)c1C(=O)NCC(C)(C)O[Si](C)(C)C (single isomer, unassigned) [Example 3 Isomer 1, 3-Chloro-N^1-{2-methyl-4-[1,2,2,2-tetrafluoro-1-(trifluoromethyl)ethyl]phenyl}-N^2-{2-methyl-2-[(trimethylsilyl)oxy]propyl}phthalamide]
chromatographic logP [2]: 3.11

Cc1cc(C(F)(C(F)(F)F)C(F)(F)F)ccc1NC(=O)c1c(Cl)cccc1C(=O)NCC(C)(C)O[Si](C)(C)C (single isomer, unassigned) [Example 3 Isomer 2, 3-Chloro-N^2-{2-methyl-4-[1,2,2,2-tetrafluoro-1-(trifluoromethyl)ethyl]phenyl}-N^1-{2-methyl-2-[(trimethylsilyl)oxy]propyl}phthalamide]
chromatographic logP [2]: 3.19

CC(N)CSC[Si](C)(C)C (stereo not shown) [1-{[(trimethylsilyl)methyl]sulphanyl}-2-propanamide]
chromatographic logP [2]: 1.28

Cc1cc(C(F)(C(F)(F)F)C(F)(F)F)ccc1NC(=O)c1c(Cl)cccc1C(=O)NC(C)CSC[Si](C)(C)C (stereo not shown) [drawing 31]
Kill rate in % after 7 d [3]: 100%

Cc1cc(C(F)(C(F)(F)F)C(F)(F)F)ccc1NC(=O)c1cccc(Cl)c1C(=O)NC(C)CSC[Si](C)(C)C (stereo not shown) [drawing 32]
Kill rate in % after 7 d [3]: 100%

Cc1cc(C(F)(C(F)(F)F)C(F)(F)F)ccc1NC(=O)c1c(I)cccc1C(=O)NC(C)CSC[Si](C)(C)C (stereo not shown) [drawing 33]
Kill rate in % after 7 d [3]: 100%

Cc1cc(C(F)(C(F)(F)F)C(F)(F)F)ccc1NC(=O)c1cccc(I)c1C(=O)NC(C)CSC[Si](C)(C)C (stereo not shown) [drawing 34]
Kill rate in % after 7 d [3]: 100%

Cc1cc(C(F)(C(F)(F)F)C(F)(F)F)ccc1NC(=O)c1c(Cl)cccc1C(=O)NC(C)CSC[Si](C)(C)C (stereo not shown) [drawing 35]
Kill rate in % after 7 d [4]: 90%

Cc1cc(C(F)(C(F)(F)F)C(F)(F)F)ccc1NC(=O)c1cccc(Cl)c1C(=O)NC(C)CSC[Si](C)(C)C (stereo not shown) [drawing 36]
Kill rate in % after 7 d [4]: 100%

Cc1cc(C(F)(C(F)(F)F)C(F)(F)F)ccc1NC(=O)c1cccc(I)c1C(=O)NC(C)CSC[Si](C)(C)C (stereo not shown) [drawing 37]
Kill rate in % after 7 d [4]: 100%

Cc1cc(Oc2ccc(C(F)(F)F)cc2)ccc1NC(=O)c1cccc(I)c1C(=O)NC(C)CSC[Si](C)(C)C (stereo not shown) [drawing 38]
Kill rate in % after 7 d [4]: 100%

Cc1cc(Oc2ccc(C(F)(F)F)cc2)ccc1NC(=O)c1cccc(Cl)c1C(=O)NC(C)CSC[Si](C)(C)C (stereo not shown) [drawing 39]
Kill rate in % after 7 d [4]: 100%

Cc1cc(C(F)(C(F)(F)F)C(F)(F)F)ccc1NC(=O)c1c(Cl)cccc1C(=O)NC(C)CSC[Si](C)(C)C (stereo not shown) [drawing 40]
Kill rate in % after 7 d [5]: 100%

Cc1cc(C(F)(C(F)(F)F)C(F)(F)F)ccc1NC(=O)c1cccc(Cl)c1C(=O)NC(C)CSC[Si](C)(C)C (stereo not shown) [drawing 41]
Kill rate in % after 7 d [5]: 100%

Cc1cc(C(F)(C(F)(F)F)C(F)(F)F)ccc1NC(=O)c1c(I)cccc1C(=O)NC(C)CSC[Si](C)(C)C (stereo not shown) [drawing 42]
Kill rate in % after 7 d [5]: 100%

Cc1cc(C(F)(C(F)(F)F)C(F)(F)F)ccc1NC(=O)c1cccc(I)c1C(=O)NC(C)CSC[Si](C)(C)C (stereo not shown) [drawing 43]
Kill rate in % after 7 d [5]: 100%

Cc1cc(C(F)(C(F)(F)F)C(F)(F)F)ccc1NC(=O)c1c(Cl)cccc1C(=O)NC(C)CSC[Si](C)(C)C (stereo not shown) [drawing 44]
Kill rate in % after 7 d [6]: 100%

Cc1cc(C(F)(C(F)(F)F)C(F)(F)F)ccc1NC(=O)c1cccc(Cl)c1C(=O)NC(C)CSC[Si](C)(C)C (stereo not shown) [drawing 45]
Kill rate in % after 7 d [6]: 100%

Cc1cc(C(F)(C(F)(F)F)C(F)(F)F)ccc1NC(=O)c1c(Cl)cccc1C(=O)NC(C)CSC[Si](C)(C)C (stereo not shown) [drawing 46]
Kill rate in % after 7 d [7]: 100%

Cc1cc(C(F)(C(F)(F)F)C(F)(F)F)ccc1NC(=O)c1cccc(Cl)c1C(=O)NC(C)CSC[Si](C)(C)C (stereo not shown) [drawing 47]
Kill rate in % after 7 d [7]: 100%

Cc1cc(C(F)(C(F)(F)F)C(F)(F)F)ccc1NC(=O)c1c(I)cccc1C(=O)NC(C)CSC[Si](C)(C)C (stereo not shown) [drawing 48]
Kill rate in % after 7 d [7]: 100%

Cc1cc(C(F)(C(F)(F)F)C(F)(F)F)ccc1NC(=O)c1cccc(I)c1C(=O)NC(C)CSC[Si](C)(C)C (stereo not shown) [drawing 49]
Kill rate in % after 7 d [7]: 100%

Cc1cc(C(F)(C(F)(F)F)C(F)(F)F)ccc1NC(=O)c1c(Cl)cccc1C(=O)NC(C)CSC[Si](C)(C)C (stereo not shown) [drawing 52]
pest or weed control at 500 ppm [1]: 100%

Cc1cc(C(F)(C(F)(F)F)C(F)(F)F)ccc1NC(=O)c1cccc(Cl)c1C(=O)NC(C)CSC[Si](C)(C)C (stereo not shown) [drawing 54]
pest or weed control at 500 ppm [1]: 100%

Cc1cc(C(F)(C(F)(F)F)C(F)(F)F)ccc1NC(=O)c1c(I)cccc1C(=O)NC(C)CSC[Si](C)(C)C (stereo not shown) [drawing 55]
pest or weed control at 500 ppm [1]: 100%

Cc1cc(C(F)(C(F)(F)F)C(F)(F)F)ccc1NC(=O)c1cccc(I)c1C(=O)NC(C)CSC[Si](C)(C)C (stereo not shown) [drawing 56]
pest or weed control at 500 ppm [1]: 100%

Cc1cc(Oc2ccc(C(F)(F)F)cc2)ccc1NC(=O)c1cccc(I)c1C(=O)NC(C)CSC[Si](C)(C)C (stereo not shown) [drawing 57]
pest or weed control at 500 ppm [1]: 100%

Cc1cc(Oc2ccc(C(F)(F)F)cc2)ccc1NC(=O)c1cccc(Cl)c1C(=O)NC(C)CSC[Si](C)(C)C (stereo not shown) [drawing 58]
pest or weed control at 500 ppm [1]: 100%
